Test results from patent publication US20220202799A1, “PHARMACEUTICAL FORMULATIONS CONTAINING P2Y14 ANTAGONISTS” (priority 2019, published 2022).
“And” between values parts separate entries of the source, which are not always exact repeats. Identical values can stand only once.

Assays:
[1] = Stability of PPTN/SBECD solution on dilution into saline; assay type: physicochemical; conditions: 9 mg/mL PPTN
Protocol: The stability of PPTN in SBECD-containing solutions was analyzed at various concentrations of PPTN. A solution containing 9 mg/mL PPTN and 12% SBECD, as described above, was diluted into saline as described in Table 13.

[2] = Urine concentrations, 24-hour continuous intravenous infusion; assay type: in vivo, Sprague-Dawley rats; conditions: for Total amount in urine: all intervals; for Total amount in urine / Amount in urine: individual animals
Protocol: The safety and pharmacokinetics of PPTN (KB-1801) in rats receiving continuous intravenous injections of SBECD-containing solutions were analyzed. Three cohorts of six male and six female rats each were given continuous intravenous infusion of PPTN (KB-1801) at 10 mg/kg/day, 30 mg/kg/day or 100 mg/kg/day in a dosing solution containing PPTN at 0.25 mg/mL, 0.75 mg/mL or 2.5 mg/mL and SBECD at about 3.8%. Dosing volume was 40 mIkg/day.

In the case of `O=C(O)c1cc(-c2ccc(C3CCNCC3)cc2)c2ccc(-c3ccc(C(F)(F)F)cc3)cc2c1` [KB-1801, 4-[4-(piperidin-4-yl)phenyl]-7-[4-(trifluoromethyl)phenyl]-2-naphthoic acid], the “Result (appearance after dilution)” value ([1]; 12% SBECD stock diluted 3x with saline) is reported as “Clear solution”, the “Result (appearance after dilution)” value ([1]; 12% SBECD stock diluted 10x with saline) is reported as “Clear solution” and the “Result (appearance after dilution)” value ([1]; 12% SBECD stock diluted 50x with saline) is reported as “Clear solution”. For the same compound, the “Total amount in urine” value ([2]; 24-hour IV infusion 10 mg/kg, female rats) was 6.29 µg and 1.92 µg and 6.27 µg and 24.6 µg and 20.3 µg and 2.33 µg, the Amount in urine ([2]; 24-hour IV infusion 10 mg/kg, female rats, interval 0-4 h) was 0.16 µg and 0.14 µg and 0.81 µg and 4.98 µg and 2.11 µg and the Amount in urine ([2]; 24-hour IV infusion 10 mg/kg, female rats, interval 4-9 h) was 5.74 µg and 1.32 µg and 11.2 µg and 0.05 µg and 0.23 µg. The Amount in urine ([2]; 24-hour IV infusion 10 mg/kg, female rats, interval 9-24 h) was 0.39 µg and 0.46 µg and 5.46 µg and 13.4 µg and 15.3 µg, the “Total amount in urine” value ([2]; 24-hour IV infusion 30 mg/kg, female rats) was 22.6 µg and 2.00 µg and 6.83 µg and 40.2 µg and 30.9 µg and 57.2 µg and the Amount in urine ([2]; 24-hour IV infusion 30 mg/kg, female rats, interval 0-4 h) was 8.76 µg and 2.00 µg and 0.003 µg and 7.08 µg and 0.71 µg. For the same compound, the Amount in urine ([2]; 24-hour IV infusion 30 mg/kg, female rats, interval 4-9 h) was 9.17 µg and 16.2 µg and 22.6 µg and 29.6 µg, the Amount in urine ([2]; 24-hour IV infusion 30 mg/kg, female rats, interval 9-24 h) was 27.6 µg and 4.65 µg and 6.83 µg and 17.0 µg and 7.56 µg and the “Total amount in urine” value ([2]; 24-hour IV infusion 30 mg/kg, male rats) was 61.7 µg and 63.3 µg and 9.64 µg and 18.1 µg and 243.3 µg and 31.4 µg. For the same compound, the Amount in urine ([2]; 24-hour IV infusion 30 mg/kg, male rats, interval 0-4 h) was 0.01 μg (3×) and 2.03 μg and 0.001 μg and 33.9 μg, the Amount in urine ([2]; 24-hour IV infusion 30 mg/kg, male rats, interval 4-9 h) was 26.0 µg and 43.8 µg and 5.65 µg and 0.003 µg and 11.8 µg and 21.8 µg and the Amount in urine ([2]; 24-hour IV infusion 30 mg/kg, male rats, interval 9-24 h) was 9.64 µg and 35.7 µg and 17.4 µg and 3.98 µg and 18.1 µg and 197.6 µg. The “Total amount in urine” value ([2]; 24-hour IV infusion 100 mg/kg, female rats) was 45.8 µg and 48.8 µg and 64.7 µg and 43.0 µg and 149.9 µg and 171.6 µg, the Amount in urine ([2]; 24-hour IV infusion 100 mg/kg, female rats, interval 0-4 h) was 0.02 µg and 0.01 µg and 9.75 µg and 3.61 µg and 25.6 µg and 10.7 µg and the Amount in urine ([2]; 24-hour IV infusion 100 mg/kg, female rats, interval 4-9 h) was 1.83 µg and 19.3 µg and 5.96 µg and 0.01 µg and 27.4 µg. The Amount in urine ([2]; 24-hour IV infusion 100 mg/kg, female rats, interval 9-24 h) was 133.5 µg and 43.9 µg and 48.8 µg and 35.7 µg and 33.4 µg and 124.3 µg, the “Total amount in urine” value ([2]; 24-hour IV infusion 100 mg/kg, male rats) was 239.6 µg and 82.2 µg and 0.001 µg and 186.8 µg and 228.4 µg and 526.5 µg and the Amount in urine ([2]; 24-hour IV infusion 100 mg/kg, male rats, interval 0-4 h) was 0.12 µg and 40.8 µg and 51.3 µg. For the same compound, the Amount in urine ([2]; 24-hour IV infusion 100 mg/kg, male rats, interval 4-9 h) was 33.6 µg and 26.0 µg and 0.001 µg and 24.1 µg and 32.1 µg and 71.5 µg, the Amount in urine ([2]; 24-hour IV infusion 100 mg/kg, male rats, interval 9-24 h) was 403.7 µg and 206.0 µg and 56.1 µg and 162.6 µg and 155.6 µg and the “Total amount in urine, individual animal” value ([2]; male Sprague-Dawley rats, 24-hour intravenous infusion at 10 mg/kg, 0-24 h, 10 mg/kg) was 45.5 µg and 49.8 µg and 14.8 µg and 67.4 µg and 19.0 µg and 3.25 µg. The “Amount in urine, individual animal” value ([2]; male Sprague-Dawley rats, 24-hour intravenous infusion at 10 mg/kg, time interval 0-4 h, 10 mg/kg) was 5.36 µg and 2.11 µg and 2.02 µg and 11.1 µg and 0.03 µg, the “Amount in urine, individual animal” value ([2]; male Sprague-Dawley rats, 24-hour intravenous infusion at 10 mg/kg, time interval 4-9 h, 10 mg/kg) was 4.47 µg and 0.35 µg and 6.15 µg and 0.52 µg and the “Amount in urine, individual animal” value ([2]; male Sprague-Dawley rats, 24-hour intravenous infusion at 10 mg/kg, time interval 9-24 h, 10 mg/kg) was 3.23 µg and 35.7 µg and 47.3 µg and 6.64 µg and 56.3 µg and 18.5 µg. For the same compound, the “Urine concentration compared with plasma” value ([2]; rats, continuous intravenous infusion for 24 or 72 hours) was “generally in excess of plasma concentrations”.
